# Columns and labels:
# Type in all cases: cell-based, human
# MDA-MB-231 cells = assay: 384-well microtiter plate drug screening assay (Alamar Blue); conditions: 384-well plate
# Protocol: (§1) Jurkat E6.1 cells (ATCC® TIB-152™) and MDA-MB-231 cells (ATCC® HTB-26™) were used as models for suspended and adherent cancer cell lines respectively. Jurkat cell line was derived from human acute T cell leukemia, whereas MDA-MB-231 cell line was derived from human metastatic breast adenocarcinoma.
# (§2) Microtiter plate drug screening assays were carried out on 96-well clear round flat-bottom plates (Corning, USA) or 384-well white square flat-bottom plates (Corning, USA).
# (§3) First, 5.0×10^5 or 1.0×10^5 cells were seeded per well for 96-well and 384-well plates respectively. Drugs were diluted with Dulbecco's phosphate-buffered saline (DPBS) (Life Technologies, USA), and subsequently added to achieve final drug concentrations as indicated on the graphs. Afterwards, the plates were transferred to humidified incubator at 37° C. supplemented with 5% CO2 for 16-24 h incubation. Finally, Alamar Blue assay was used to measure cell viability. Fluorescence intensity (Ex. 560 nm, Em. 590 nm) using auto-cutoff was measured from bottom on plate reader (Molecular Devices SpectraMax MS Plate Reader, USA). Cells treated with 0.1% dimethyl sulfoxide (DMSO) were used as negative control, while no cells were added to blank control. All experiments were performed in triplicate for 96-well plates and in quadruplicates for 384-well relates.
# (§4) For microliter plate assays, average relative fluorescence signal measured by plate reader from 6 reads of each well was used as raw data point. Cell viability was calculated as follows: […]
# (§5) where Sample represented raw data points of each sample well, whereas DMSO control and Blank represented average raw data points of all DMSO control and Blank wells, respectively.
# Jurkat cells = assay: as above; conditions: 384-well plate, 16-24 h
# Protocol: as §1, §2, §3, §4, §5
# [1] = system: primary tumor cell NAS1604 (nasopharyngeal tumor); assay: On chip drug screening of primary tumor dissociated cells
# [2] = system: NAS1607 primary nasopharyngeal tumor sample; assay: as above
# Protocol: All human studies were conducted with the approval of the Panel on Research Ethics of University of Macau and the Research Ethics Committee of Kiang Wu Hospital, according to the Materials Transfer Agreement between University of Macau and Kiang Wu Hospital. Informed consent for sampling and publication without identifiable information was obtained from all participating patients. All patient sample names were double encoded by the university and the hospital, respectively, to remove any trace of patient identity during sample collection, transfer, processing and analysis. Primary tumors were obtained from surgery conducted at Kiang Wu Hospital immediately after tumor resection. Tumor tissue was dissociated as previously described. Briefly, tumor tissue was first cut into small pieces by a scalpel, then transferred to a 50 mL conical tube containing 5 mL Digestion Buffer I (DMEM/F12 medium containing 5% FBS, 5 μg/mL insulin, 500 ng/mL hydrocortisone, 10 ng/mL epidermal growth factor (EGF), 20 ng/mL cholera toxin, 300 U/mL collagenase III and 100 U/mL hyaluronidase), and digested for no more than 12 h with shaking at 100 rpm in humidified incubator at 37° C. supplemented with 5% CO2. After spinning down at 400 g at ambient temperature for 2 min, the cells were resuspended with 2 mL Digestion Buffer II (DMEM/F12 medium containing 5 mg/mL dispase II and 0.1 mg/mL deoxyribonuclease I), followed by digestion at ambient temperature for 5 min. The cells were then washed with 10 mL HBSS (Life Technologies, USA). […]
# Briefly, cells at final concentrations of 1-2×10^6 cells per mL were aliquoted in 0.2 mL PCR tubes, then mixed with corresponding drugs and 2 μM ethidium homodimer 1 (Life Technologies, USA) by manual pipetting. […] Brightfield and red fluorescence images (Ex. 531/40 nm, Em. 593/40 nm) were taken under 10× magnification (Life Technologies EVOS FL Imaging System, USA).
# (§6) For on chip assays, the number of cells was counted in brightfield and red fluorescence images from each well respectively. Cell viability was calculated as follows: […]
# [3] = system: derived cell line NAS1604C; assay: On chip drug screening of derived cell line
# Protocol: On chip drug screening was performed using the PDMS-based microfluidic chip as described above. A 500 μL glass syringe (Hamilton, USA) and polytetrafluoroethylene (PTFE) tubings with appropriate bore (Cole Parmer, USA) was used to connect between the syringe pump (Harvard Apparatus PHD Ultra Syringe Pump, USA) and the microfluidic chip. Fluorinert® FC-40 (Sigma-Aldrich, USA) supplemented with 2% 008-Fluorosurfactant (Ran Biotechnologies, USA) was used as oil phase; relevant cell culture medium, supplemented with 1% (w/v) methyl cellulose (Sigma-Aldrich, USA) was used as aqueous phase. Cells treated with 0.1% dimethyl sulfoxide (DMSO) were used as negative control.
# Briefly, cells at final concentrations of 1-2×10^6 cells per mL were aliquoted in 0.2 mL PCR tubes, then mixed with corresponding drugs and 2 μM ethidium homodimer 1 (Life Technologies, USA) by manual pipetting. Next, […], cell-drug mixtures were loaded into the tubing, consecutively segregated by oil phase at withdrawal rate of 200 μL/h by syringe pump. After loading all mixtures, the tubing was inserted into the microfluidic chip, which was back-flushed with oil phase at 500 μL/h by syringe pump. After that, the mixtures were infused at 25 μL/h by syringe pump. Finally, the inlet and outlet tubings were cut and sealed with Vaseline (Vaseline, USA). The chips were placed in 150 mm cell culture dish (Coming, USA) containing wet paper towels, and transferred to humidified incubator at 37° C. supplemented with 5% CO2 for 16-24 h incubation. Brightfield and red fluorescence images (Ex. 531/40 nm, Em. 593/40 nm) were taken under 10× magnification (Life Technologies EVOS FL Imaging System, USA).
# as §6
# where Total cells and Dead cells referred to the total number of cells counted from brightfield and red fluorescence images, respectively.
# Drug susceptibility between the primary tumor cell NAS1604 and its derived cell line NAS1604C was compared (FIG. 9). […] Here, the concept of droplet cell viability was introduced to indicate the total number of live cells among all cells in each individual droplet; in turn, the range of droplet cell viability referred to the range of cell viability of all droplets under specified treatment condition. […] On the other hand, mean cell viability of all treatment conditions were higher in the derived cell line NAS1604C than corresponding conditions in the primary tumor cell NAS1604, reminiscent of increased cell viability that was required for tumor amplification.
SMILES,"viability at 10 µM (MDA-MB-231 cells; Homo sapiens, 10.0 μM dose, read-out: cell viability) [%]",IC50 (Jurkat cells; Homo sapiens) [µM],"range of droplet cell viability ([1]; NAS1604, 1 μM bortezomib) [%]","mean cell viability compared with other treatments ([1]; NAS1604, 1 μM, versus DMSO and cisplatin)","dose dependence of normalized cell viability ([2]; NAS1607, 16-24 h, normalized to mock treatment)",droplet cell viability range ([3]; 1 μM bortezomib) [%],droplet cell viability range after removal of one droplet outlier ([3]; 1 μM bortezomib) [%],"cell viability compared with mock treatment ([3]; 1 μM, versus DMSO)",IC50 (MDA-MB-231 cells) [µM],IC50 (Jurkat cells) [µM],"mean cell viability compared with other treatments ([1]; NAS1604, 20 μM)","range of droplet cell viability ([1]; NAS1604, 20 μM cisplatin) [%]","susceptibility ([2]; NAS1607, 100 μM and 33 μM)",droplet cell viability range ([3]; 11 μM cisplatin) [%],droplet cell viability range ([3]; 33 μM cisplatin) [%],droplet cell viability range after removal of one droplet outlier ([3]; 33 μM cisplatin) [%],dose dependence of response ([3]; 11 and 33 μM)
CC(C)C[C@H](NC(=O)[C@H](Cc1ccccc1)NC(=O)c1cnccn1)B(O)O [bortezomib],50,0.039,42.6,highest mean cell viability,inverse correlation,37.5,16.1,highest cell viability,,,,,,,,,
N.N.[Cl][Pt][Cl] [cisplatin],,,,,,,,,> 50,39,lowest mean cell viability,64.0,leveled off,36.5,71.6,40.8,dose-dependent response
